Data: PubChem BioAssay AID248 (DTP/NCI, 2004)
Toxic doses and inconclusive results are not listed.

Test system: L1210 leukemia ip in BDF1 mice, survival T/C
Assay: NCI In Vivo Anticancer Drug Screen. Data for tumor model L1210 Leukemia (intraperitoneal) in B6D2F1 (BDF1) mice
Conditions: endpoint: mean survival time, higher = longer survival
In short: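 Ratio derived from survival: compound-dosed mice over vehicle-dosed mice, all bearing a transplantable tumor.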

[1] = dose: 100.0 mg/kg/injection, schedule: Q01DX009 (ip), vehicle: saline with Tween-80
[2] = dose: 100.0 mg/kg/injection, schedule: Q04DX003 (ip), vehicle: Klucel (hydroxypropylcellulose) (HPC)
[3] = dose: 200.0 mg/kg/injection, schedule: Q04DX003 (ip), vehicle: Klucel (hydroxypropylcellulose) (HPC)
[4] = dose: 400.0 mg/kg/injection, schedule: Q04DX003 (ip), vehicle: Klucel (hydroxypropylcellulose) (HPC)
[5] = dose: 100.0 mg/kg/injection, schedule: Q01DX009 (ip), vehicle: Klucel (hydroxypropylcellulose) (HPC)
[6] = dose: 200.0 mg/kg/injection, schedule: Q01DX009 (ip), vehicle: Klucel (hydroxypropylcellulose) (HPC)
[7] = dose: 200.0 mg/kg/injection, schedule: Q01DX009 (ip), vehicle: saline with Tween-80

CC(=O)OCC1OC(n2cnc3c(F)nc(F)nc32)C(OC(C)=O)C1OC(C)=O (centres undefined) was tested, and the T/C (dose: 100.0 mg/kg/injection, schedule: Q01DX001 (sc), vehicle: olive oil, sesame oil, peanut oil) was 104 % of control, the T/C (dose: 200.0 mg/kg/injection, schedule: Q01DX001 (sc), vehicle: olive oil, sesame oil, peanut oil) was 104 % of control and the T/C (dose: 400.0 mg/kg/injection, schedule: Q01DX001 (sc), vehicle: olive oil, sesame oil, peanut oil) was 100 % of control.

CC1(C)C=CN(c2ccccc2)C(=O)O1 was tested, and the T/C (dose: 100.0 mg/kg/injection, schedule: Q04DX002 (ip), vehicle: Klucel (hydroxypropylcellulose) (HPC)) was 94 % of control, the T/C (dose: 200.0 mg/kg/injection, schedule: Q04DX002 (ip), vehicle: Klucel (hydroxypropylcellulose) (HPC)) was 98 % of control and the T/C (dose: 400.0 mg/kg/injection, schedule: Q04DX002 (ip), vehicle: Klucel (hydroxypropylcellulose) (HPC)) was 98 % of control.

For Nc1ccc2sc3ccccc3c2c1, the T/C (dose: 50.0 mg/kg/injection, schedule: Q01DX009 (ip), vehicle: saline with Tween-80) was 106 % of control, the T/C [1] was 105 % of control and the T/C (dose: 100.0 mg/kg/injection, schedule: Q04DX003 (ip), vehicle: saline with Tween-80) was 95 % of control. For the same compound, the T/C (dose: 200.0 mg/kg/injection, schedule: Q04DX003 (ip), vehicle: saline with Tween-80) was 104 % of control.

For O=S(=O)(NNS(=O)(=O)c1ccccc1)c1ccccc1, the T/C (dose: 100.0 mg/kg/injection, schedule: Q01DX001 (ip), vehicle: saline with Tween-80) was 101 % of control, the T/C (dose: 200.0 mg/kg/injection, schedule: Q01DX001 (ip), vehicle: saline with Tween-80) was 94 % of control and the T/C (dose: 400.0 mg/kg/injection, schedule: Q01DX001 (ip), vehicle: saline with Tween-80) was 88 % of control.

With O=C(O)c1ccc(/C=N\Nc2ccccc2)cc1 the T/C (dose: 50.0 mg/kg/injection, schedule: Q04DX003 (ip), vehicle: Klucel (hydroxypropylcellulose) (HPC)) was 95 % of control, the T/C [2] was 106 % of control and the T/C [3] was 100 % of control. For the same compound, the T/C [4] was 97 % of control.

In the case of CC(C)N(CCC#N)CN1C(=O)c2ccccc2C1=O, the T/C [5] is reported as 94 % of control and the T/C [6] is reported as 91 % of control.

In the case of CCCCCCCCCCCCNC(=O)C[n+]1ccc(C(N)=O)cc1, the T/C (dose: 100.0 mg/kg/injection, schedule: Q04DX003 (ip), vehicle: saline) is reported as 94 % of control.

In the case of O=NN(CCCl)C(=O)N[C@H]1CCCC[C@H]1O, the T/C (dose: 12.0 mg/kg/injection, schedule: Q01DX001 (ip), vehicle: saline with Tween-80) is reported as 176 % of control, the T/C (dose: 18.0 mg/kg/injection, schedule: Q01DX001 (ip), vehicle: saline with Tween-80) is reported as 301 % of control and the T/C (dose: 26.0 mg/kg/injection, schedule: Q01DX001 (ip), vehicle: saline with Tween-80) is reported as 443 % of control. The T/C (dose: 40.0 mg/kg/injection, schedule: Q01DX001 (ip), vehicle: saline with Tween-80) was 442 % of control and the T/C (dose: 60.0 mg/kg/injection, schedule: Q01DX001 (ip), vehicle: saline with Tween-80) was 205 % of control.

With CC1CCC(C(C)C)/C(=N/S)C1 (centres undefined) the T/C (dose: 75.0 mg/kg/injection, schedule: Q04DX003 (ip), vehicle: saline) was 93 % of control, the T/C (dose: 150.0 mg/kg/injection, schedule: Q04DX003 (ip), vehicle: saline) was 96 % of control and the T/C (dose: 300.0 mg/kg/injection, schedule: Q04DX003 (ip), vehicle: saline) was 104 % of control.

In the case of O=C(O)c1cc(Br)c(C(=O)O)cc1Br, the T/C (dose: 100.0 mg/kg/injection, schedule: Q01DX001 (ip), vehicle: saline) is reported as 100 % of control, the T/C (dose: 200.0 mg/kg/injection, schedule: Q01DX001 (ip), vehicle: saline) is reported as 102 % of control and the T/C (dose: 400.0 mg/kg/injection, schedule: Q01DX001 (ip), vehicle: saline) is reported as 96 % of control.

In the case of O=C(CCl)Nc1ccc(Br)cc1, the T/C [1] is reported as 109 % of control and the T/C [7] is reported as 96 % of control.

For CC1(CCBr)NC(=O)NC1=O (centres undefined), the T/C [5] was 121 % of control, the T/C [2] was 98 % of control and the T/C [6] was 101 % of control. For the same compound, the T/C [3] was 119 % of control, the T/C (dose: 400.0 mg/kg/injection, schedule: Q01DX009 (ip), vehicle: Klucel (hydroxypropylcellulose) (HPC)) was 95 % of control and the T/C [4] was 107 % of control.

In the case of COC1C(C)(C)C2(C)CC[N+]1(Cc1ccccc1)C2 (centres undefined), the T/C (dose: 25.0 mg/kg/injection, schedule: Q04DX002 (ip), vehicle: saline) is reported as 106 % of control, the T/C (dose: 50.0 mg/kg/injection, schedule: Q04DX002 (ip), vehicle: saline) is reported as 97 % of control and the T/C (dose: 100.0 mg/kg/injection, schedule: Q04DX002 (ip), vehicle: saline) is reported as 116 % of control.

In the case of NCC(OCC(=O)O)C(Cl)(Cl)Cl (centres undefined), the T/C [1] is reported as 93 % of control, the T/C [7] is reported as 95 % of control and the T/C (dose: 400.0 mg/kg/injection, schedule: Q01DX009 (ip), vehicle: saline with Tween-80) is reported as 90 % of control.

With CCCCCN(CCCCC)CCCNc1c2c(nc3ccc(Cl)cc13)CCCC2 the T/C (dose: 50.0 mg/kg/injection, schedule: Q01DX001 (ip), vehicle: saline) was 96 % of control.

With N#CCC(=O)N/N=C/c1cc(Cl)cc(Cl)c1O the T/C (dose: 100.0 mg/kg/injection, schedule: Q04DX002 (ip), vehicle: saline with Tween-80) was 108 % of control, the T/C (dose: 200.0 mg/kg/injection, schedule: Q04DX002 (ip), vehicle: saline with Tween-80) was 97 % of control and the T/C (dose: 400.0 mg/kg/injection, schedule: Q04DX002 (ip), vehicle: saline with Tween-80) was 93 % of control.
